“Also recorded” adds a separate entry of the source. Square brackets hold non-standard residues; d marks the D form. Ends that are not written are not given here. dOrn = NCCC[C@@H](N)C(=O)O
What follows are substances tested on microorganisms (assay: Targeting peptide binding to target microorganisms (Tables 3, 10, 12)). Conditions: data not shown.

| Substance | bacterial binding |
| --- | --- |
| DAANEA-GGG [BL-1] | no bacterial binding |

Same assay, conditions: microorganism(s) the targeting peptide binds; binding in aqueous buffers that varied with peptide solubility, preferably 1x PBS

| Substance | Target(s) |
| --- | --- |
| 1T-287 (KGYPLPFQYRLNNH; Peptide with targeting and/or antimicrobial activity) | P. gingivalis; also recorded: T. denticola; also recorded: S. gordonii; also recorded: S. mitis; also recorded: S. mutans; also recorded: S. oralis; also recorded: S. salivarious; also recorded: S. sanguinis |
| 1T-288 (RWVGGEPSADIYLSAKDTKT; Peptide with targeting and/or antimicrobial activity) | F. nucleatum; also recorded: S. gordonii; also recorded: S. salivarious; also recorded: S. sanguinis |
| 1T-289 (EPSADIYLSAKDTKT; Peptide with targeting and/or antimicrobial activity) | F. nucleatum; also recorded: P. gingivalis; also recorded: S. gordonii; also recorded: S. mitis; also recorded: S. mutans; also recorded: S. oralis; also recorded: S. sanguinis |
| 1T-291 (DMKIIKLYIKILSFLFIKYCNKKLNSVKLKA; Peptide with targeting and/or antimicrobial activity) | A. naeslundii; also recorded: F. nucleatum; also recorded: P. gingivalis; also recorded: T. denticola; also recorded: S. mitis; also recorded: S. mutans; also recorded: S. oralis |
| 1T-294 (YDKIADGVFKIGKRGVL; Peptide with targeting and/or antimicrobial activity) | T. denticola |
| 1T-295 (KYKLKKIIL; Peptide with targeting and/or antimicrobial activity) | S. mitis; also recorded: S. salivarious; also recorded: S. sanguinis |
| 1T-297 (RSLRLNNALTKLPKLWYNRIKEAFYAYNDYDK; Peptide with targeting and/or antimicrobial activity) | A. naeslundii; also recorded: F. nucleatum; also recorded: T. denticola; also recorded: S. mitis; also recorded: S. mutans; also recorded: S. oralis |
| 1T-301 (SKLPRVLDASLKL; Peptide with targeting and/or antimicrobial activity) | F. nucleatum; also recorded: S. gordonii; also recorded: S. sanguinis |
| 1T-304 (STAGEASRRTASEASRRTAAKLRG; Peptide with targeting and/or antimicrobial activity) | P. gingivalis |
| CHA0 (D[dOrn]KTAA[dOrn]K; not fully specified (bridges)) | P. fluorescens |
| PF-014 (HPTDNKHN; Peptide with targeting and/or antimicrobial activity) | E. coli; also recorded: C. jeikeium |
| PF-016 (RKQYDDLSFNFLY; Peptide with targeting and/or antimicrobial activity) | S. epidermidis; also recorded: E. faecalis; also recorded: C. jeikeium |
| PF-018 (YYKTYFKEV; Peptide with targeting and/or antimicrobial activity) | E. coli; also recorded: C. jeikeium |
| PF-038 (MAYKDEGKETKFAVKGYKD; Peptide with targeting and/or antimicrobial activity) | M. luteus |
| PF-039 (MLEEKNKSL; Peptide with targeting and/or antimicrobial activity) | P. mirabilis; also recorded: C. jeikeium |
| PF-044 (KLKKYIHKPD; Peptide with targeting and/or antimicrobial activity) | S. epidermidis and M. luteus and MRSA and C. jeikeium |
| PF-047 (NQEPSLQQDKEQKDNKG; Peptide with targeting and/or antimicrobial activity) | S. mutans |
| PF-050 (SYYLKRREEKGK; Peptide with targeting and/or antimicrobial activity) | S. epidermidis; also recorded: M. luteus; also recorded: E. coli; also recorded: C. jeikeium |
| PF-054 (VSISRFIGGGHVFNGNNKRNL; Peptide with targeting and/or antimicrobial activity) | S. epidermidis; also recorded: E. coli |
| PF-055 (GHVFNGNNKRNL; Peptide with targeting and/or antimicrobial activity) | S. mutans |
| PF-060 (HSSHL; Peptide with targeting and/or antimicrobial activity) | E. coli; also recorded: C. albicans; also recorded: C. jeikeium |
| PF-062 (MKKKRINNDILGRMIYSSSIDKRNLYNLKYYE; Peptide with targeting and/or antimicrobial activity) | S. epidermidis and M. luteus and E. coli and P. aeruginosa and MRSA and S. pneumoniae and E. faecalis and C. jeikeium |

Same assay, conditions: microorganism(s) the targeting peptide binds; binding in aqueous buffers varied with peptide solubility, preferably 1x PBS

| Substance | Target(s) |
| --- | --- |
| AIEGVIKKGACFKLLRHEMF [PF-167] | S. epidermidis and E. coli and C. albicans and MRSA and C. jeikeium and C. jejuni |
| HIKETR (Peptide with targeting and/or antimicrobial activity) [PF-222] | S. epidermidis |
| MKKLVAALAVIVILTGCVYDPVNYDKIHDQEFQDHLRQNG [PF-252] | S. mutans |
| MLTSRKKRLKKIVEEQNKKDESI [PF-336] | S. mutans; also recorded: E. coli |
| PEIIKIVSGLL [PF-758] | S. epidermidis and M. luteus and E. coli and MRSA and S. pneumoniae and E. faecalis and C. jeikeium |
| PF670 (chain 1 TVIVAPMHSGV; chain 2 TVIVAPMHSGV; Peptide with targeting and/or antimicrobial activity) | Mycobacteria spp |
| PF-097 (QPTQGEQGTRPRRPTPMRGLLI; Peptide with targeting and/or antimicrobial activity) | C. jeikeium |
| PF-101 (DPVPERQEQACACHRTAKPGK; Peptide with targeting and/or antimicrobial activity) | S. mutans |
| PF-104 (ERTAVNDLWI; Peptide with targeting and/or antimicrobial activity) | MRSA and C. jeikeium |
| PF-130 (LQRSDEESMPRRHEKYS; Peptide with targeting and/or antimicrobial activity) | E. faecalis; also recorded: C. jeikeium; also recorded: C. jejuni |
| PF-131 (RRAAARTKGNRR; Peptide with targeting and/or antimicrobial activity) | S. epidermidis and E. coli and MRSA and C. jeikeium |
| PF-132 (RPGDGAAEQGRSR; Peptide with targeting and/or antimicrobial activity) | S. epidermidis; also recorded: C. jeikeium |
| PF-134 (GKAMKRQDCSAL; Peptide with targeting and/or antimicrobial activity) | S. epidermidis; also recorded: C. jeikeium |
| PF-138 (AVHHSLLFR; Peptide with targeting and/or antimicrobial activity) | S. epidermidis and M. luteus and P. mirabilis and E. coli and C. albicans and MRSA and C. jeikeium and C. jejuni |
| PF-141 (VVRRFQGM; Peptide with targeting and/or antimicrobial activity) | S. epidermidis and M. luteus and C. albicans and MRSA and C. jeikeium |
| PF-142 (GIDRGCQAAR; Peptide with targeting and/or antimicrobial activity) | S. mutans |
| PF-146 (GCGKRRIITKSASRDTR; Peptide with targeting and/or antimicrobial activity) | S. epidermidis and M. luteus and P. aeruginosa and C. albicans and MRSA and C. jeikeium |

— patent US20110039763A1, “TARGETED ANTIMICROBIAL MOIETIES” (C3 JIAN, INC., priority 2009, published 2011)
